This note sets out measurements from ChEMBL document CHEMBL1158971, “Aromatic Secondary Metabolites from the Sponge Tedania ignis” (J Nat Prod, 1991).

Data set [1] can be described thus: Toxicity against brine shrimp assessed as mortality at 25 ppm after 4 hrs. The settings on record: artemia, in vivo; read-out: Activity. It counts as organism-based.
Data set [2] is described as follows: Toxicity against brine shrimp assessed as mortality at 25 ppm after 8 hrs. It counts as organism-based. Conditions: artemia, in vivo; read-out: Activity; call rule not given here.
A short description of data set [3]: Toxicity against brine shrimp assessed as mortality at 25 ppm after 24 hrs. It counts as organism-based. The settings on record: artemia, in vivo; read-out: Activity.
A short description of data set [4]: Toxicity against brine shrimp assessed as mortality at 25 ppm after 6 hrs. Conditions: artemia, in vivo; read-out: Activity. The format is organism-based.
In a further data set the test system is Euphorbia esula. Briefly: Phytotoxicity against Euphorbia esula assessed as necrotic lesions at 5 ug by nicked leaf assay. The format is functional.
The next data set deals with Artemia. Briefly: Toxicity against brine shrimp assessed as mortality at 25 ppm. It counts as organism-based. The settings on record: in vivo.

For `CC(=O)c1nccc2c1[nH]c1ccccc12`, the mortality at 4 h, 25 ppm in data set [1] worked out at 14%. Besides, the mortality at 8 h, 25 ppm in data set [2] came to 43%. For the same molecule, the mortality at 24 h, 25 ppm in data set [3] turned out to be 100%. Further, the mortality at 6 h, 25 ppm in data set [4] was 21%.
Consider `CC(=O)/C=C/C(C)=C(\C)c1c[nH]c2ccccc12`, for which, in data set [1], the mortality at 4 h, 25 ppm amounted to 20%. Besides, the mortality at 8 h, 25 ppm in data set [2] came out at 20%. Also, the mortality at 24 h, 25 ppm in data set [3] stood at 70%. The mortality at 6 h, 25 ppm in data set [4] was determined as 20%.
With `Cc1cccc2c1[nH]c1ccccc12`, in data set [1], the mortality at 4 h, 25 ppm was found to be 82%. Also, the mortality at 6 h, 25 ppm in data set [4] came out at 100%.
In the case of `CC(=O)/C=C/c1ccc(C)c(C)c1C`, in data set [1], the mortality at 4 h, 25 ppm worked out at 0%. Also, the mortality at 8 h, 25 ppm in data set [2] came out at 90%. Also, the mortality at 24 h, 25 ppm in data set [3] was 100%. In data set [4], the mortality at 6 h, 25 ppm was found to be 50%.
Turning to `CC(=O)/C=C/Cc1c[nH]c2ccccc12`, the mortality at 4 h, 25 ppm in data set [1] was determined as 0%. Moreover, the mortality at 8 h, 25 ppm in data set [2] amounted to 27%. For the same molecule, the Activity with Euphorbia esula is 2 mm. Moreover, in data set [3], the mortality at 24 h, 25 ppm is 91%. For the same molecule, in data set [4], the mortality at 6 h, 25 ppm is 0%.
As to `CC(=O)/C=C/c1c[nH]c2ccccc12`, the mortality at 4 h, 25 ppm in data set [1] turned out to be 0%. Further, the mortality at 8 h, 25 ppm in data set [2] is 8%. Further, the mortality at 24 h, 25 ppm in data set [3] is 39%. Further, the mortality at 6 h, 25 ppm in data set [4] came out at 0%.
In the case of `O=C(CO)c1c[nH]c2ccccc12`, the Activity entry in the data set on Artemia is given as “Not Active”.
Take `NC(=O)Cc1ccccc1`: the Activity result in the data set on Artemia is “Not Active”.
